Earlier results on 1 compound are cited in US20090196935A1, “Pharmaceutical Capsules Comprising Extended Release Dipyridamole Pellets” (priority 2008, published 2009).

As usually defined, the pKa is the pH at which an ionisable group is half protonated.

The conditions of series [1]: in vivo.
Assay in series [2]: not given
The source holds these as a separate data set.

Regarding `OCCN(CCO)c1nc(N2CCCCC2)c2nc(N(CCO)CCO)nc(N3CCCCC3)c2n1` [Dipyridamole, 2,6-bis-(diethanolamino)-4,8-dipiperidino-(5,4-d)-pyrimidine], the biological half-life result in series [1] was “less than one hour”. In addition, the “solubility in acidic mediums” value (acidic mediums with a pH below 4) is “soluble”. Under “dilute acids”, the “solubility in dilute acids” value is given as “soluble”. Besides, the solubility in water result (water) is on record as “practically insoluble”. In addition, the “solubility in water at a pH greater than 4” value (water at a pH greater than 4) is “practically insoluble”. For the setting “weak base, medium not stated”, the solubility entry is “poor solubility”. Also, the pKa in series [2] is listed as 6.1.
